{"source": "paper PMC3032545", "about": "“A c-di-GMP Effector System Controls Cell Adhesion by Inside-Out Signaling and Surface Protein Cleavage” (PLoS Biology, 2011)", "target": "T1, LapD (c-di-GMP receptor) with LapG (periplasmic protease, read-out) (Pseudomonas fluorescens, UniProt Q3KK31)", "T1 construct": "full-length native LapD and LapG in clarified Pf0-1 cell extracts; LapD mutants from plasmid pMQ72 in the lapD deletion strain; with Periplasmic cysteine protease LapG (transglutaminase-like cysteine peptidase, DUF920)", "T1 sequence (Q3KK31 1-648)": "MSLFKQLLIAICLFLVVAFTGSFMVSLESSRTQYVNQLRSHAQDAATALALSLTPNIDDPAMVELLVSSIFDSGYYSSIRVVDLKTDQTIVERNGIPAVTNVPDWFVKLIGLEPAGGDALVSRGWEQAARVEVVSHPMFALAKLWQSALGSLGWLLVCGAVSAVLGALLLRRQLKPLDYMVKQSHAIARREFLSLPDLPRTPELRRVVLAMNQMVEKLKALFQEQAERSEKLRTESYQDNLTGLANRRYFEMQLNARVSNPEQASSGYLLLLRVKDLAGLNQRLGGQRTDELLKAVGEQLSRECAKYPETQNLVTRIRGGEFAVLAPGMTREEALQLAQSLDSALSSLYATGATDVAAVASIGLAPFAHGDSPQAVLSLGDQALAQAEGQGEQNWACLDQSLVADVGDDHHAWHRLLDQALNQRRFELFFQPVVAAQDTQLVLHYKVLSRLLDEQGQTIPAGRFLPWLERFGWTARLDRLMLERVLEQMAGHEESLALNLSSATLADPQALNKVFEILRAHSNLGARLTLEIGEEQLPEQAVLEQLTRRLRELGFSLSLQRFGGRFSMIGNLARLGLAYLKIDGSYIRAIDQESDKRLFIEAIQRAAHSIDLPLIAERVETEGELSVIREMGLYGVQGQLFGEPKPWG", "T1 sequence (Q3KK32 50-251 partner)": "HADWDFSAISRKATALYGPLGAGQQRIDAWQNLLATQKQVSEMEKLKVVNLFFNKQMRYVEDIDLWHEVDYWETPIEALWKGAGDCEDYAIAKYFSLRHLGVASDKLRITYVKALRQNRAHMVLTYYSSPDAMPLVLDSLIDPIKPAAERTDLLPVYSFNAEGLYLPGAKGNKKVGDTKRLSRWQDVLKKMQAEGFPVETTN", "experiment": "inhibition of LapG cleavage of N-Term-LapA in cell extract, anti-His Western blot densitometry", "format": "biochemical", "details": "LapD-dependent: c-di-GMP binds LapD EAL domain, not LapG; wild-type Pf0-1 extract; 30 pmol N-Term-LapA, 100 min, room temperature", "data": [{"compound": "Nc1nc2c(ncn2[C@@H]2O[C@@H]3CO[P@](=O)(O)O[C@H]4[C@@H](O)[C@H](n5cnc6c(=O)[nH]c(N)nc65)O[C@@H]4CO[P@](=O)(O)O[C@H]3[C@H]2O)c(=O)[nH]1", "note": "[c-di-GMP]", "values": [{"measurement": "IC50", "value": "2300 ± 1100", "unit": "nM"}]}]}
